From PubChem BioAssay (NCI)
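Step 1: Grow cells in 96-well plates. Step 2: Expose to compound for 48 hours at 5 concentrations. Step 3: Interpolate endpoints linearly; if unreached, use highest concentration. GI50 marks 50% less growth. The concentration for full growth arrest is given as TGI.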

How the values were obtained:
Test in all cases: DTP human tumour cell line panel, 48 h
SF-539 CNS = tested on: SF-539 CNS
RXF 393 renal = tested on: RXF 393 renal
MDA-MB-435 = tested on: MDA-MB-435
OVCAR-5 ovarian = tested on: OVCAR-5 ovarian
RPMI-8226 leukemia = tested on: RPMI-8226 leukemia
NCI/ADR-RES ovarian = tested on: NCI/ADR-RES ovarian
HT29 colon = tested on: HT29 colon
HCT-116 colon = tested on: HCT-116 colon
ACHN renal = tested on: ACHN renal
UACC-62 melanoma = tested on: UACC-62 melanoma
HOP-92 NSCLC = tested on: HOP-92 NSCLC
IGROV1 ovarian = tested on: IGROV1 ovarian
OVCAR-4 ovarian = tested on: OVCAR-4 ovarian
T-47D breast = tested on: T-47D breast
A549 NSCLC = tested on: A549 NSCLC
SK-OV-3 ovarian = tested on: SK-OV-3 ovarian
MDA-MB-468 breast = tested on: MDA-MB-468 breast
DU-145 prostate = tested on: DU-145 prostate
EKVX NSCLC = tested on: EKVX NSCLC
SF-295 CNS = tested on: SF-295 CNS
SF-268 CNS = tested on: SF-268 CNS
HL-60(TB) leukemia = tested on: HL-60(TB) leukemia
786-0 renal = tested on: 786-0 renal
BT-549 breast = tested on: BT-549 breast
KM12 colon = tested on: KM12 colon
NCI-H226 lung = tested on: NCI-H226 lung
HS 578T breast = tested on: HS 578T breast
NCI-H23 lung = tested on: NCI-H23 lung
LOX IMVI melanoma = tested on: LOX IMVI melanoma
SN12C renal = tested on: SN12C renal
HOP-62 NSCLC = tested on: HOP-62 NSCLC
OVCAR-3 ovarian = tested on: OVCAR-3 ovarian
MDA-MB-231 breast = tested on: MDA-MB-231 breast
SK-MEL-5 melanoma = tested on: SK-MEL-5 melanoma
M14 melanoma = tested on: M14 melanoma
SW-620 colon = tested on: SW-620 colon
HCT-15 colon = tested on: HCT-15 colon
A498 renal = tested on: A498 renal
MALME-3M melanoma = tested on: MALME-3M melanoma
MOLT-4 leukemia = tested on: MOLT-4 leukemia
COLO 205 colon = tested on: COLO 205 colon
CAKI-1 renal = tested on: CAKI-1 renal
UACC-257 melanoma = tested on: UACC-257 melanoma
PC-3 prostate = tested on: PC-3 prostate
TK-10 renal = tested on: TK-10 renal
SNB-75 CNS = tested on: SNB-75 CNS
HCC-2998 colon = tested on: HCC-2998 colon
MCF7 breast = tested on: MCF7 breast
NCI-H460 lung = tested on: NCI-H460 lung
U251 CNS = tested on: U251 CNS
SNB-19 CNS = tested on: SNB-19 CNS
OVCAR-8 ovarian = tested on: OVCAR-8 ovarian
SK-MEL-28 melanoma = tested on: SK-MEL-28 melanoma
NCI-H522 lung = tested on: NCI-H522 lung
SR leukemia = tested on: SR leukemia
SK-MEL-2 melanoma = tested on: SK-MEL-2 melanoma
UO-31 renal = tested on: UO-31 renal
CCRF-CEM leukemia = tested on: CCRF-CEM leukemia
K-562 leukemia = tested on: K-562 leukemia

## O=C(c1ccc(Cl)cc1)C1[C@H](c2ccccc2Cl)[C@@H](c2ccccc2)NC12C(=O)Nc1ccc(Cl)cc12 (stereo partly drawn)
SF-539 CNS
  GI50: 16.9 µM
  TGI: 32.6 µM
RXF 393 renal
  GI50: 13.9 µM
  TGI: 29.3 µM
MDA-MB-435
  GI50: 16 µM
  TGI: 30.3 µM
OVCAR-5 ovarian
  GI50: 15.9 µM
  TGI: 31.6 µM
RPMI-8226 leukemia
  GI50: 25.6 µM
  TGI: 79.7 µM
NCI/ADR-RES ovarian
  GI50: 16.3 µM
  TGI: 33.2 µM
HT29 colon
  GI50: 15.6 µM
  TGI: 32.5 µM
HCT-116 colon
  GI50: 14.6 µM
  TGI: 28.2 µM
ACHN renal
  GI50: 25.5 µM
  TGI: 79.5 µM
UACC-62 melanoma
  GI50: 13.4 µM
  TGI: 26.7 µM
HOP-92 NSCLC
  GI50: 16 µM
  TGI: 33.8 µM
IGROV1 ovarian
  GI50: 16.7 µM
  TGI: 38.5 µM
OVCAR-4 ovarian
  GI50: 20.8 µM
  TGI: 58.4 µM
T-47D breast
  GI50: 16.1 µM
  TGI: 39.6 µM
A549 NSCLC
  GI50: 18.5 µM
  TGI: 46.1 µM
SK-OV-3 ovarian
  GI50: 21 µM
  TGI: 61.2 µM
MDA-MB-468 breast
  GI50: 11.8 µM
  TGI: 25.8 µM
DU-145 prostate
  GI50: 20.1 µM
  TGI: 42.7 µM
EKVX NSCLC
  GI50: 18 µM
  TGI: 47.6 µM
SF-295 CNS
  GI50: 16.9 µM
  TGI: 34.8 µM
SF-268 CNS
  GI50: 19.5 µM
  TGI: 48.2 µM
HL-60(TB) leukemia
  GI50: 19.9 µM
  TGI: 52.5 µM
786-0 renal
  GI50: 19.1 µM
  TGI: 39.7 µM
BT-549 breast
  GI50: 16.2 µM
  TGI: 33.3 µM
KM12 colon
  GI50: 18.2 µM
  TGI: 38.1 µM
NCI-H226 lung
  GI50: 14.9 µM
  TGI: 30.3 µM
HS 578T breast
  GI50: 16.5 µM
  TGI: 40.2 µM
NCI-H23 lung
  GI50: 16.2 µM
  TGI: 33.2 µM
LOX IMVI melanoma
  GI50: 14.9 µM
  TGI: 28.1 µM
SN12C renal
  GI50: 15.3 µM
  TGI: 28.7 µM
HOP-62 NSCLC
  GI50: 14.8 µM
  TGI: 29.3 µM
OVCAR-3 ovarian
  GI50: 16.8 µM
  TGI: 35.3 µM
MDA-MB-231 breast
  GI50: 15.6 µM
  TGI: 29.5 µM
SK-MEL-5 melanoma
  GI50: 16.6 µM
  TGI: 30.6 µM
M14 melanoma
  GI50: 15.3 µM
  TGI: 28.7 µM
SW-620 colon
  GI50: 15.9 µM
  TGI: 31.8 µM
HCT-15 colon
  GI50: 16.1 µM
  TGI: 31.3 µM
A498 renal
  GI50: 19.9 µM
  TGI: 46.6 µM
MALME-3M melanoma
  GI50: 15.4 µM
  TGI: 29 µM
MOLT-4 leukemia
  GI50: 23.6 µM
  TGI: 78.7 µM
COLO 205 colon
  GI50: 16.5 µM
  TGI: 30.1 µM
CAKI-1 renal
  GI50: 15.2 µM
  TGI: 43.5 µM
UACC-257 melanoma
  GI50: 20.4 µM
  TGI: 44.1 µM
PC-3 prostate
  GI50: 15.1 µM
  TGI: 36.1 µM
TK-10 renal
  GI50: 19.6 µM
  TGI: 53.2 µM
SNB-75 CNS
  GI50: 11.1 µM
  TGI: 36.9 µM
HCC-2998 colon
  GI50: 16.3 µM
  TGI: 32.7 µM
MCF7 breast
  GI50: 17.6 µM
  TGI: 42.6 µM
NCI-H460 lung
  GI50: 19 µM
  TGI: 36.3 µM
U251 CNS
  GI50: 16.8 µM
  TGI: 33 µM
SNB-19 CNS
  GI50: 23.1 µM
  TGI: 78.9 µM
OVCAR-8 ovarian
  GI50: 17.9 µM
  TGI: 39.5 µM
SK-MEL-28 melanoma
  GI50: 17.1 µM
  TGI: 31.6 µM
NCI-H522 lung
  GI50: 13.7 µM
  TGI: 30.3 µM
SR leukemia
  GI50: 18.5 µM
  TGI: 47.7 µM
SK-MEL-2 melanoma
  GI50: 16.2 µM
  TGI: 32.7 µM
UO-31 renal
  GI50: 12.9 µM
  TGI: 37.7 µM
CCRF-CEM leukemia
  GI50: 26.7 µM
  TGI: 72.9 µM
K-562 leukemia
  GI50: 26.6 µM
  TGI: > 100 µM
